The record followed here is US10766869B2, “Triazoles for the treatment of demyelinating dieases” (Vertex Pharmaceuticals Incorporated, priority 2015, dated 2020).

The experiment relates to primary rat mixed cortical cells. As to the kind of experiment: In vitro myelination assay (MBP positive myelin strands, fold myelin pixels above background). As to conditions: for fold induction at 1 µM / fold induction at 10 µM: Rattus norvegicus. The experiment is classed as cell-based. From the text: In Vitro Myelination Assay
Compounds were screened for their ability to induce myelination using a primary rat mixed cortical cell culture assay, which contains neurons, oligodendrocyte precursor cells, oligodendrocytes, astrocytes and microglia. The assay quantifies myelination by measuring myelin basic protein (MBP) immunofluorescent positive myelin strands from images taken using a Cellomics Array Scan (model Arrayscan VTI HCS Reader) or a Molecular Devices Image Xpress (model IXM XL) high content imager. The myelin strands were quantitated using a custom created myelin detection software program. Test compounds were dissolved in DMSO to make a 10 mM initial stock solution. Dilutions were made in myelination medium to obtain the final solutions for the assay and were tested in primary rat mixed cortical cells at selected doses.
Primary rat mixed cortical cells were prepared from harvested cerebral cortices from postnatal day 1 (P1) rats (P1 Rat CD® IGS pups) were purchased from Charles River) in Complete Dissociation Medium, wherein the meninges were removed and the cortical tissue chopped with a razor blade into ˜1 mm^3 pieces. Tissue from 1-3 pups was collected and placed into 15 ml conical tubes in a total volume of 5 ml of Complete Dissociation Medium. Activated papain (3 ml) was added to each 15 ml conical tube and tissue was incubated at 37° C. for 30 minutes. After the 30 minute incubation, DNase (Sigma D4527; 75 μl of a 1 mg/ml stock) was added to each tube, followed by mechanical trituration using a 2 ml serological pipette and autopipettor to gently dissociate the tissue. Following trituration, larger tissue pieces were allowed to settle by gravity, and the supernatant containing dissociated cells was transferred to a 50 ml conical tube with 4 ml of trypsin inhibitor. Cells were pelleted by centrifugation, resuspended in myelination medium and filtered through a 40 μm filter. Cells were then seeded in 96-well plates (BD Biosciences, Black, PDL-coated, Cat. No. 356640) at 87,500-95,000 cells/well in a final volume of 200 μl of Myelination Medium in the presence or absence of compound and cultured for 14 days in a humidified 37° C. incubator with 5% CO2. Half the medium was removed and replaced with fresh medium containing 1× compound on days 6 and 10. Using a Biotek automatic plate washer (model Biomek® FXP Laboratory Automation Workstation), cells were fixed with 4% paraformaldehyde on day 14, washed with PBS and blocked in 5% normal goat serum (Vector Laboratories, S-1000) in 0.1% PBS-TritonX-100 (PBST) for 1 hour. Cells were stained with 1:500 anti-MBP (Covance, cat # SMI99) primary antibody in 1% normal goat serum in 0.1% PBST for 2 hours at room temperature followed by 2 washes with PBST. A final incubation in secondary antibody (1:1000, Invitrogen, Alexa-488 anti-mouse IgG2b) and 1:10,000 Hoechst dye in 1% normal goat serum in 0.1% PBST was performed for 2 hours at room temperature. Plates were washed with PBS and then scanned on a Cellomics Array Scan using a 10× objective (25 images per well) or the Image Xpress using a 10× objective (9 image per well). Images were analyzed using Vertex myelin detection software (described below) to quantify total MBP myelin pixels per well. Fold myelin pixels above background at two concentrations (1.0 μM and 10.0 μM) relative to baseline of no added compound are reported below in Table 4. Standard deviation for each compound concentration was calculated using all replicates and using a standard deviation formula commonly used in the art.
One of skill in the art would recognize that for this type of primary neuronal mixed cell assay variability between different assay runs is to be expected even though the protocol is the same for each assay run. For instance, variability may be due to small differences in cell viability, cell density, age of the animals, etc.
Vertex Myelin Detection Software: […]

Where [1] appears, read: 1.0 μM compound, read-out: Fold myelin pixels above background relative to baseline of no added compound.
[2] abbreviates: 10.0 μM compound, read-out: Fold myelin pixels above background relative to baseline of no added compound.
[3] abbreviates: 1.0 μM compound, relative to baseline of no added compound, read-out: Fold myelin pixels above background.
The mark [4] stands for this setting: 10.0 μM compound, relative to baseline of no added compound, read-out: Fold myelin pixels above background.
Setting [5] is: 1.0 μM compound, relative to baseline of no added compound, read-out: Fold myelin pixels above background, 1.0 μM.
Setting [6] is: 10.0 μM compound, relative to baseline of no added compound, read-out: Fold myelin pixels above background, 10.0 μM.

Where two headings read alike, the source gives them in different places. Bounds are passed on as bounds.

Turning to `Cc1cc(Nc2ncn(-c3ccc(F)c(F)c3)n2)cc(N[C@H]2C[C@@H](N3CCOCC3)C2)c1` (single isomer, unassigned) [Compound 826, N1-[1-(3,4-difluorophenyl)-1,2,4-triazol-3-yl]-5-methyl-N3-(3-morpholinocyclobutyl)benzene-1,3-diamine], under setting [1], the fold induction at 1 µM was 10 to 100. Also, the fold induction at 10 µM under setting [2] is at most 1.
For the compound `Cc1cc(Nc2ncn(-c3cc(F)cc(F)c3)n2)cc(N[C@H]2C[C@@H](N3CCOCC3)C2)c1` (single isomer, unassigned) [Compound 861, N1-[1-(3,5-difluorophenyl)-1,2,4-triazol-3-yl]-5-methyl-N3-(3-morpholinocyclobutyl)benzene-1,3-diamine], under setting [1], the fold induction at 1 µM was 10 to 100. Moreover, under setting [2], the fold induction at 10 µM is at most 1.
Regarding `Cc1cc(Nc2ncn(-c3cccc(F)c3)n2)c(F)c(OC2CCOC2)c1` (single isomer, unassigned) [Compound 886, N-(2-fluoro-5-methyl-3-tetrahydrofuran-3-yloxy-phenyl)-1-(3-fluorophenyl)-1,2,4-triazol-3-amine], the “Fold myelin pixels above background relative to baseline of no added compound” value is given as “++ (>10 to 100x)” (1.0 μM compound) and “+ (>1 to 10x)” (10.0 μM compound).
Consider `Cc1cc(Nc2ncn(-c3cc(F)cc(F)c3)n2)cc(N2CCC[C@H]2CN2CCOCC2)c1` (single isomer, unassigned) [Compound 919], for which, under setting [1], the fold induction at 1 µM lay in the range of 10 to 100. In addition, the fold induction at 10 µM under setting [2] was at most 1.
As for `Cc1cc(Nc2ncn(-c3ccccc3)n2)c(F)c(OC2CCOC2)c1` (single isomer, unassigned) [Compound 1002, N-(2-fluoro-5-methyl-3-tetrahydrofuran-3-yloxy-phenyl)-1-phenyl-1,2,4-triazol-3-amine], the “Fold myelin pixels above background relative to baseline of no added compound” value (1.0 μM compound) was “+++ (>100 to 1000x)”. Under setting [2], the fold induction at 10 µM was 10 to 100.
In the case of `Cc1cc(Nc2ncn(-c3ccc(F)c(F)c3)n2)c(F)c(OC2CCOC2)c1` (single isomer, unassigned) [Compound 1009, 1-(3,4-difluorophenyl)-N-(2-fluoro-5-methyl-3-tetrahydrofuran-3-yloxy-phenyl)-1,2,4-triazol-3-amine], the fold induction at 1 µM under setting [1] fell in the range of 10 to 100. Besides, under setting [2], the fold induction at 10 µM lay in the range of 1 to 10.
For the compound `Cc1cc(Nc2ncn(-c3cc(F)cc(F)c3)n2)c(F)c(OC2CCOC2)c1` (single isomer, unassigned) [Compound 1028, 1-(3,5-difluorophenyl)-N-(2-fluoro-5-methyl-3-tetrahydrofuran-3-yloxy-phenyl)-1,2,4-triazol-3-amine], under setting [1], the fold induction at 1 µM lay in the range of 10 to 100. Under setting [2], the fold induction at 10 µM lay in the range of 1 to 10.
For the compound `Cc1cc(Nc2ncn(-c3ccccc3)n2)c(F)c(OC2CCOC2)c1` (single isomer, unassigned) [Compound 1052, N-(2-fluoro-5-methyl-3-tetrahydrofuran-3-yloxy-phenyl)-1-phenyl-1,2,4-triazol-3-amine], the “Fold myelin pixels above background relative to baseline of no added compound” value (1.0 μM compound) is on record as “++ (>10 to 100x)” and the “Fold myelin pixels above background relative to baseline of no added compound” value (10.0 μM compound) was “++ (>10 to 100x)”.
`Cc1cc(Nc2ncn(-c3cccc(F)c3)n2)c(F)c(OC2CCOC2)c1` (single isomer, unassigned) [Compound 1061, N-(2-fluoro-5-methyl-3-tetrahydrofuran-3-yloxy-phenyl)-1-(3-fluorophenyl)-1,2,4-triazol-3-amine]: the “Fold myelin pixels above background relative to baseline of no added compound” value (10.0 μM compound) is given as “++ (>10 to 100x)”. Also, the fold induction at 1 µM under setting [1] lay in the range of 10 to 100.
Consider `Cc1cc(NC[C@@]2(C)CCCO2)cc(Nc2ncn(-c3cc(F)cc(F)c3)n2)c1` (stereo in doubt) [Compound 490, N1-[1-(3,5-difluorophenyl)-1,2,4-triazol-3-yl]-5-methyl-N3-[(2-methyltetrahydrofuran-2-yl)methyl]benzene-1,3-diamine], for which the fold induction at 1 µM under setting [3] lay in the range of 10 to 100. Further, the fold induction at 10 µM under setting [4] was 10 to 100.
Turning to `Cc1cc(Nc2ncn(-c3cc(F)cc(F)c3)n2)cc([C@@]2(C)CNC(=O)O2)c1` (stereo in doubt) [Compound 658, 5-[3-[[1-(3,5-difluorophenyl)-1,2,4-triazol-3-yl]amino]-5-methyl-phenyl]-5-methyl-oxazolidin-2-one], the fold induction at 1 µM under setting [3] is 10 to 100. Moreover, under setting [4], the fold induction at 10 µM is at most 1.
As for `Cc1cc(Nc2ncn(-c3cc(F)cc(F)c3)n2)cc(N2CCN(C3COC3)CC2)n1` [Compound 1, N-[1-(3,5-difluorophenyl)-1,2,4-triazol-3-yl]-2-methyl-6-[4-(oxetan-3-yl)piperazin-1-yl]pyridin-4-amine], under setting [5], the fold induction at 1 µM is 1000 to 10000. Moreover, the fold induction at 10 µM under setting [6] is 100 to 1000.
Taken in the same sequence, the figures for `COC1CN(c2cc(C)cc(Nc3ncn(-c4cc(F)cc(F)c4)n3)c2)C1` [Compound 2, 1-(3,5-difluorophenyl)-N-[3-(3-methoxyazetidin-1-yl)-5-methyl-phenyl]-1,2,4-triazol-3-amine] were 100 to 1000 and 100 to 1000.
Taken in the same sequence, the figures for `Fc1ccc(-n2cnc(Nc3cc(C4=CCOCC4)nc(C4CC4)c3)n2)cc1F` [Compound 3, 2-cyclopropyl-N-[1-(3,4-difluorophenyl)-1,2,4-triazol-3-yl]-6-(3,6-dihydro-2H-pyran-4-yl)pyridin-4-amine] were 100 to 1000 and 1000 to 10000.
Regarding `OC1(C2CN(c3cc(Nc4ncn(-c5cc(F)cc(F)c5)n4)cc(C(F)(F)F)c3)CCN2)CCC1` (stereo not shown) [Compound 4, 1-[4-[3-[[1-(3,5-difluorophenyl)-1,2,4-triazol-3-yl]amino]-5-(trifluoromethyl)phenyl]piperazin-2-yl]cyclobutanol], the fold induction at 1 µM under setting [5] is 1 to 10. For the same compound, the fold induction at 10 µM under setting [6] was at most 1.
For `Fc1cc(F)cc(-n2cnc(Nc3cc(Cl)cc(N4CCN(C5COC5)CC4)c3)n2)c1` [Compound 5, N-[3-chloro-5-[4-(oxetan-3-yl)piperazin-1-yl]phenyl]-1-(3,5-difluorophenyl)-1,2,4-triazol-3-amine], under setting [5], the fold induction at 1 µM lay within 1000 to 10000. Under setting [6], the fold induction at 10 µM is at most 1.
The corresponding values for `Cc1cc(Nc2ncn(-c3ccccc3)n2)cc(N2CCC(C)(O)C2)c1` (stereo not shown) [Compound 6] are 100 to 1000 and 10 to 100.
In the case of `Cc1cc(Nc2ncn(-c3ccccc3)n2)cc(N2CC3(COC3)C2)c1` [Compound 7, N-[3-methyl-5-(6-oxa-2-azaspiro[3.3]heptan-2-yl)phenyl]-1-phenyl-1,2,4-triazol-3-amine], under setting [5], the fold induction at 1 µM is 1000 to 10000. Under setting [6], the fold induction at 10 µM is 1000 to 10000.
Regarding `Cc1cc(Nc2ncn(-c3cc(F)cc(F)c3)n2)cc(NC2CCOC2)c1` (stereo not shown) [Compound 8, N3-[1-(3,5-difluorophenyl)-1,2,4-triazol-3-yl]-5-methyl-N1-tetrahydrofuran-3-yl-benzene-1,3-diamine], the fold induction at 1 µM under setting [5] lay in the range of 100 to 1000. For the same compound, under setting [6], the fold induction at 10 µM lay in the range of 1 to 10.
Turning to `c1ccc(-n2cnc(Nc3cc(C4CC4)nc(N4CCC5(CC4)OCCO5)c3)n2)cc1` [Compound 9, 2-cyclopropyl-6-(1,4-dioxa-8-azaspiro[4.5]decan-8-yl)-N-(1-phenyl-1,2,4-triazol-3-yl)pyridin-4-amine], the fold induction at 1 µM under setting [5] was in the range of 1000 to 10000. The fold induction at 10 µM under setting [6] is 100 to 1000.
